Patent EP1832585A1, “Thiazole-piperidine derivatives for treatment of hyperproliferative diseases” (Oridis Biomed Forschungs- und Entwicklungs GmbH, priority 2006, dated 2007)

What was measured:
Type in all cases: cell-based
Sk-Br-3 = assay: Proliferation assay (CellTiter-Glo luminescent cell viability assay), SK-Br-3; conditions: human breast cancer SK-Br-3; 48 hours incubation; 10% (v/v) FCS; read-out: EC50 (effective concentration reducing cell proliferation by 50%), inhibition of SK-Br-3 proliferation
Procedure: (§1) The assay is based on the relation that the ATP content is directly proportional to the number of cells present in the culture. The CellTiter-Glo® assay is performed to measure the proliferation rate of human hepatoma (HuH7, PLC/PRF/5, Hep3B, SK-Hep1), human hepatoblastoma (HepG2), human colon carcinoma (CX-2), human breast cancer (SK-Br-3), human […] (HeLa) and human pancreatic carcinoma (DAN-G) cell lines (see Example 2). […] Further, HepG2 and Hep3B are inhibited with an EC50 of 0.9 and 0.3 µM, respectively.
(§2) To determine the inhibition of cell proliferation a luminescent cell viability assay (CellTiter-Glo®; Promega, Madison, USA) is implemented. The assay is based on the relation that the ATP content is directly proportional to the number of cells present in the culture, see Technical Bulletin No. 228 "CellTiter-Glo® Luminescent Cell viability Assay", Revised 2/04. Promeg, Madison, USA. […] Triplicates are measured for each concentration. […] The final cell number is determined after 48 hour of incubation. […] After subsequent incubation for additional 10 minutes at room temperature the luminescence signal was recorded within 30 min. EC50 values are calculated using the four-parametric Hill equation (Sigma Plot). […]

HuH7 = assay: Proliferation assay (CellTiter-Glo luminescent cell viability assay), HuH7; conditions: Huh-7; human hepatoma HuH7; 48 hours incubation; 10% (v/v) FCS; compounds 0 to 20 µM; read-out: EC50 (effective concentration reducing cell proliferation by 50%), inhibition of HuH7 proliferation
Procedure: as §1
To determine the inhibition of cell proliferation a luminescent cell viability assay (CellTiter-Glo®; Promega, Madison, USA) is implemented. The assay is based on the relation that the ATP content is directly proportional to the number of cells present in the culture, see Technical Bulletin No. 228 "CellTiter-Glo® Luminescent Cell viability Assay", Revised 2/04. Promeg, Madison, USA. The CellTiter-Glo® assay is performed to measure the proliferation rate of human hepatoma (HuH7, PLC/PRF/5, Hep3B, SK-Hep1), human hepatoblastoma (HepG2), human colon carcinoma (CX-2), human breast cancer (SK-Br-3), human […] (HeLa) and human pancreatic carcinoma (DAN-G) cell lines. 3000 viable cells (viability ≥ 90%) are seeded in opaque-walled 96-well plates and incubated for 24 hours in DMEM, supplemented with 2 mM glutamin. Cell proliferation is stimulated by addition of FCS to a final concentration of 10% (v/v). Simultaneously the compounds I to XVII (see Table 1 A to 1D and 2) are added in a concentration range of 0 to 20 µM. Triplicates are measured for each concentration. Cells and compounds (see Table 1 A to 1D, and 2) are incubated for a period of 48 hours in a volume of 140 µl cell culture medium (10% (v/v) FCS, 2 mM Glutamin, DMEM). The compounds are solved in 60% to 100% (v/v) DMSO at a concentration of 2 mM. The final DMSO concentration under assay conditions never exceeded 1% (v/v). Throughout the assay cells are kept in a humidified incubator (95% rH) at 37°C and 5% CO2. The final cell number is determined after 48 hour of incubation. Therefore 140 µl CellTiter-Glo®Reagent is added in each well. The contents are mixed on an orbital shaker for 2 minutes at room temperature. After subsequent incubation for additional 10 minutes at room temperature the luminescence signal was recorded within 30 min. EC50 values are calculated using the four-parametric Hill equation (Sigma Plot).
Control values are: (1) 10% (v/v) FCS, 2 mM Glutamin, DMEM -> maximum cell number and (2) 2 mM Glutamin, DMEM -> initial cell number.

Hep3B = assay: Proliferation assay (CellTiter-Glo luminescent cell viability assay), Hep3B; conditions: human hepatoma Hep3B; 48 hours incubation; 10% (v/v) FCS; read-out: EC50, inhibition of Hep3B proliferation
Procedure: as §1, §2

DAN-G = assay: Proliferation assay (CellTiter-Glo luminescent cell viability assay), DAN-G; conditions: human pancreatic carcinoma DAN-G; 48 hours incubation; 10% (v/v) FCS; read-out: EC50 (effective concentration reducing cell proliferation by 50%), inhibition of DAN-G proliferation
Procedure: as §1, §2

HeLa = assay: Proliferation assay (CellTiter-Glo luminescent cell viability assay), HeLa; conditions: HeLa (printed as human ovarian carcinoma); 48 hours incubation; 10% (v/v) FCS; read-out: EC50 (effective concentration reducing cell proliferation by 50%), inhibition of HeLa proliferation
Procedure: as §1, §2

CX-2 = assay: Proliferation assay (CellTiter-Glo luminescent cell viability assay), CX-2; conditions: human colon carcinoma CX-2; 48 hours incubation; 10% (v/v) FCS; read-out: EC50 (effective concentration reducing cell proliferation by 50%), inhibition of CX-2 proliferation
Procedure: as §1, §2

HepG2 = assay: Proliferation assay (CellTiter-Glo luminescent cell viability assay), HepG2; conditions: human hepatoblastoma HepG2; 48 hours incubation; 10% (v/v) FCS; read-out: EC50, inhibition of HepG2 proliferation
Procedure: as §1, §2

| Compound | EC50 (HuH7) [µM] | also measured |
| --- | --- | --- |
| O=C(c1cccnc1OCC(F)(F)F)N1CCC(c2nc(-c3ccc4c(c3)OCCO4)cs2)CC1 [VII] | 6.2 | – |
| CCOC(=O)c1cc(-c2csc(C3CCN(C(=O)/C=C/c4ccc5c(c4)OCO5)CC3)n2)on1 [VI] | 20.7 | – |
| Cc1nn(C)c(Cl)c1/C=C/C(=O)N1CCC(c2nc(-c3ccc4c(c3)OCCO4)cs2)CC1 [V] | 10.7 | EC50 (Sk-Br-3): > 20 µM; EC50 (DAN-G): 11.1 µM; EC50 (HeLa): 18.7 µM; EC50 (CX-2): > 20 µM |
| O=C1CC(C(=O)N2CCC(c3nc(-c4ccc5c(c4)OCCO5)cs3)CC2)CN1Cc1cccs1 (stereo not drawn) [XIV] | 29 | – |
| O=C(C1N=Nc2ccccc21)N1CCC(c2nc(-c3ccc4c(c3)OCCO4)cs2)CC1 (stereo not drawn) [XVI] | 24.9 | – |
| Cc1cc(Cl)ccc1NC(=O)COCC(=O)N1CCC(c2nc(-c3ccc4c(c3)OCCO4)cs2)CC1 [XV] | 4.94 | – |
| O=C(CCCc1nc2ccccc2[nH]1)N1CCC(c2nc(-c3cccc(Br)c3)cs2)CC1 [X] | 1.93 | – |

Now from value to compound, other results behind:

| EC50 (HuH7) [µM] | Compound | also measured |
| --- | --- | --- |
| 0.33 | O=C(/C=C/c1ccc2c(c1)OCO2)N1CCC(c2nc(-c3ccc4c(c3)OCCO4)cs2)CC1 [Compound I, E-3-{4-[4-(3,4-ethylendioxphenyl)-thiazol-2-yl]-piperidin-1-yl}-1-(3,4-methylendioxyphenyl)-3-oxo-prop-1-ene] | EC50 (Sk-Br-3): 10.8 µM; EC50 (Hep3B): 0.3 µM; EC50 (DAN-G): 4.69 µM; EC50 (HeLa): 14.8 µM; EC50 (CX-2): 19.1 µM; EC50 (HepG2): 0.9 µM |
| 1.61 | CCOC(=O)c1cc(-c2csc(C3CCN(C(=O)C(Cc4ccccc4F)NC(C)=O)CC3)n2)on1 (stereo not drawn) [III] | – |
| 12.4 | CCOC(=O)c1cc(-c2csc(C3CCN(C(=O)/C(C)=C/c4cc(OC)c(OC)cc4OC)CC3)n2)on1 [II] | – |
| 5.02 | COC(=O)C(NC(=O)N1CCC(c2nc(-c3ccc4c(c3)OCCO4)cs2)CC1)C(C)C (stereo not drawn) [IV] | – |
| 3.93 | O=C(C1COc2ccccc2O1)N1CCC(c2nc(-c3ccc4c(c3)OCCO4)cs2)CC1 (stereo not drawn) [IX] | – |
| 1.89 | CCOC(=O)CNC(=O)N1CCC(c2nc(-c3cccc(Br)c3)cs2)CC1 [VIII] | – |
| 6 | O=C(c1csc(-c2cnccn2)n1)N1CCC(c2nc(-c3ccc4c(c3)OCCO4)cs2)CC1 [XIII] | – |
| 5.76 | CCN(CC)c1ccc(-c2csc(C3CCN(Cc4ccc(N(CCC#N)CCC#N)cc4)CC3)n2)cc1 [XII] | – |
| 3.35 | O=C(c1ccccc1C[S+]([O-])c1ccccc1)N1CCC(c2nc(-c3ccc4c(c3)OCCO4)cs2)CC1 (stereo not drawn) [XI] | – |
| 0.63 | CCOC(=O)/C=C/C(=O)N1CCC(c2nc(-c3ccc(Cl)c([N+](=O)[O-])c3)cs2)CC1 [XVII] | – |
